Counter-ions that a name gives are not always drawn.
Columns and labels:
Type in all cases: in vivo
[1] = test system: type-II diabetes model mice (db/db mice); assay: Test Example 3: effective concentration of 24-methylene-9,19-cyclolanostan-3-ol for hemoglobin Alc lowering, 40 days; conditions: for Hemoglobin Alc levels (%) 41st day from the administration: negative sample = 100; for lowering effect for the hemoglobin Alc levels in comparison with negative sample: 41st day
Experimental: The 24-methylene-9,19-cyclolanostan-3-ol produced in Preparation Example 1 mentioned above was used as a test sample 3.
In this test, 6-week old male db/db mice (purchased from Clea Japan, Inc.) were used as type-II diabetes model mice. These mice were divided into groups, each consisting of 7 animals. The test sample 3 was dissolved in DMSO, and the concentration of 24-methylene-9,19-cyclolanostan-3-ol was adjusted to 0.1 or 1 μg/ml with physiological saline. The final DMSO concentration was adjusted to 0.2%. […] The type-II diabetes model mice were administered with 1 mL of the test sample 3 solution of either concentration or negative sample solution once a day everyday with a sonde for 40 consecutive days. On the 41st day from the start of the repetitive administration, hemoglobin Alc levels were measured by using DCA 2000 (Bayer-Sankyo Co., Ltd.).

[2] = test system: type-II diabetes model mice (db/db mice); assay: Test Example 4: random and fasting blood glucose levels during repetitive administration, 40 days; conditions: 1 mL once a day for 40 days, test samples 1 μg/mL, control sample 15 μg/ml; for changes over time in random blood glucose levels: FIG. 1; for changes over time in fasting blood glucose levels: after 15 hours of fasting, FIG. 2
Experimental: This test was performed in order to evaluate the hemoglobin Alc lowering action and hyperglycemia improving effect activity of compounds having the cyclolanostane skeleton.
The 9,19-cyclolanostan-3-ol and 24-methylene-9,19-cyclolanostan-3-ol produced in Preparation Example 1 mentioned above were used as test samples 1 and 2, respectively. Further, β-sitosterol (Tama Biochemical Co., Ltd.) was used as a control sample.
In this test, 6-week old male db/db mice (purchased from Clea Japan, Inc.) were used as type-II diabetes model mice. These mice were divided into groups, each consisting of 7 animals. Each sample was dissolved in DMSO, and the concentrations of 9,19-cyclolanostan-3-ol and […] were adjusted to 1 μg/mL with physiological saline to obtain test sample 1 solution and test sample 2 solution. Further, concentration of β-sitosterol was adjusted to 15 μg/ml in a similar manner to obtain a control sample solution. The final DMSO concentration was adjusted to 0.2%. […] The type-II diabetes model mice were administered with 1 mL of one of the test sample solutions, control sample solution and negative sample solution once a day everyday with a sonde for 40 consecutive days. Fasting blood glucose levels and random blood glucose levels were measured over time by using Antisense II (Bayer-Sankyo Co., Ltd.). The fasting blood glucose levels were measured after 15 hours of fasting.

[3] = test system: type-II diabetes model mice (db/db mice); assay: Test Example 2: hemoglobin Alc lowering action compared with a clinical antidiabetic drug, 22 days; conditions: for Hemoglobin Alc levels (%) 23rd day from the administration: oral 1 mL once a day for 22 days, test samples 1 μg/mL, control sample 1 7.5 μg/mL pioglitazone hydrochloride, negative sample = 100
Experimental: This test was performed in order to compare the hemoglobin Alc lowering action of the compounds of the present invention with that of an antidiabetic drug used in the clinical practice.
The same test sample 1 (9,19-cyclolanostan-3-ol) and test sample 2 (24-methylene-9,19-cyclolanostan-3-ol) used in Test Example 1 were used.
As type-II diabetes model mice, 6-week old male db/db mice (purchased from Clea Japan, Inc.) were used. These mice were divided into groups, each consisting of 7 animals. Each test sample was dissolved in DMSO, and the concentration was adjusted to 1 μg/mL with physiological saline. The final DMSO concentration was adjusted to 0.2%. […] Further, as a control sample 1, ACTOS® tablets (Takeda Pharmaceutical Co., Ltd.) were ground in a mortar and dissolved in physiological saline so that the concentration of pioglitazone hydrochloride as the active ingredient should become 7.5 μg/mL. The type-II diabetes model mice were orally administered with 1 mL of each test sample solution, control sample 1 solution or negative sample solution once a day everyday with a sonde for 22 consecutive days. On the 23rd day from the start of the administration, hemoglobin Alc levels were measured by using DCA 2000 (Bayer-Sankyo Co., Ltd.).

[4] = test system: type-II diabetes model mice (db/db mice); assay: Test Example 1: hemoglobin Alc lowering action, repetitive administration for 45 days; conditions: for Hemoglobin Alc levels (%) 43rd day from the administration: 1 mL of 1 μg/mL once a day with a sonde, negative sample = 100; for lowering effect on hemoglobin Alc levels in comparison with negative sample: 43rd day, 1 mL of 1 μg/mL once a day
Experimental: This test was performed in order to determine the hemoglobin Alc lowering action of a compound having the cyclolanostane skeleton.
The 9,19-cyclolanostan-3-ol and 24-methylene-9,19-cyclolanostan-3-ol produced in Preparation Example 1 mentioned above were used as test samples 1 and 2, respectively.
As type-II diabetes model mice, 6-week old male db/db mice (purchased from Clea Japan, Inc.) were used in this test. These mice were divided into groups, each consisting of 7 animals. Each test sample was dissolved in DMSO, and the concentration was adjusted to 1 μg/mL with physiological saline. The final DMSO concentration was adjusted to 0.2%. […] The type-II diabetes model mice were administered with 1 mL of either of the test sample solutions or the negative sample solution once a day everyday with a sonde for 45 consecutive days. On the 43rd day of the repetitive administration, hemoglobin Alc levels were measured by using DCA 2000 (Bayer-Sankyo Co., Ltd.).

| Compound | Hemoglobin Alc levels (%) 41st day from the administration ([1]; 0.1 μg (1 mL of 0.1 μg/ml once a day, 40 days)) [%] | Hemoglobin Alc levels (%) 41st day from the administration ([1]; 1 μg (1 mL of 1 μg/ml once a day, 40 days)) [%] | lowering effect for the hemoglobin Alc levels in comparison with negative sample ([1]; dose of 0.1 μg/day) | lowering effect for the hemoglobin Alc levels in comparison with negative sample ([1]; dose of 1 μg/day) [%] | changes over time in random blood glucose levels [2] | changes over time in fasting blood glucose levels [2] | Hemoglobin Alc levels (%) 23rd day from the administration [3] [%] | Hemoglobin Alc levels (%) 43rd day from the administration [4] [%] | lowering effect on hemoglobin Alc levels in comparison with negative sample [4] [%] | decreases in hemoglobin Alc levels in comparison with negative sample ([3]; 23rd day from the start of the administration) |
| --- | --- | --- | --- | --- | --- | --- | --- | --- | --- | --- |
| 24-methylene-9,19-cyclolanostan-3-ol [Test sample 2] | 98.1 ± 22.3 | 81.6 ± 14.6 | about 1.9% | 18.4 | – | – | – | – | – | – |
| CC[C@H](CC[C@@H](C)[C@H]1CC[C@H]2[C@@H]3CC=C4C[C@@H](O)CC[C@]4(C)[C@H]3CC[C@]12C)C(C)C [Control sample, β-sitosterol, reference compound] | – | – | – | – | rapid increase were observed | rapid increase were observed | – | – | – | – |
| C=C(CCC(C)C1CCC2(C)C3CCC4C(C)(C)C(O)CCC45CC35CCC12C)C(C)C (stereo not drawn) [Test sample 2, 24-methylene-9,19-cyclolanostan-3-ol] | – | – | – | – | effect of suppressing the increases in blood glucose levels was clearly observed | effect of suppressing the increases in blood glucose levels was clearly observed | 82.0 ± 7.9 | 85.6 ± 9.3 | 14.5 | – |
| CC(C)CCCC(C)C1CCC2(C)C3CCC4C(C)(C)C(O)CCC45CC35CCC12C (stereo not drawn) [Test sample 1, 9,19-cyclolanostan-3-ol] | – | – | – | – | effect of suppressing the increases in blood glucose levels was clearly observed | effect of suppressing the increases in blood glucose levels was clearly observed | 85.4 ± 11.2 | 91.8 ± 19.6 | 8.2 | – |
| CCc1ccc(CCOc2ccc(CC3SC(=O)NC3=O)cc2)nc1 (stereo not drawn) [Control sample 1, pioglitazone hydrochloride, reference compound] | – | – | – | – | – | – | 92.1 ± 0.2 | – | – | about 0.8% |

From patent US7674784B2, “Drug and food or drink for improving hyperglycemia” (Morinaga Milk Industry Co., Ltd., priority 2004, dated 2010)
